SMILES	melting point [°C]
COc1ccc(C)cc1-n1nnc2cc(F)c(-n3c(=O)cc(C(F)(F)F)[nH]c3=O)cc21 [Example 2, 3-[5-fluoro-1-(2-methoxy-5-methylphenyl)-1H-1,2,3-benzotriazol-6-yl]-6-(trifluoromethyl)-2,4(1H,3H)-pyrimidinedione]	145 to 150
CCc1ccc(-n2nnc3cc(F)c(-n4c(=O)cc(C(F)(F)F)[nH]c4=O)cc32)cc1 [Example 3, 3-[1-(4-ethylphenyl)-5-fluoro-1H-1,2,3-benzotriazol-6-yl]-6-(trifluoromethyl)-2,4(1H,3H)-pyrimidinedione]	160 to 164

From US20020111274A1, “1-alkyl-3-[1-(substituted phenyl) benzotriazol-6-yl] uracils” (BASF Aktiengesellschaft, priority 2000, published 2002)
